Data on 15 molecules can be found in US20260258064A1 (SIRONAX LTD., priority 2023, published 2026).

For the test, the target named is T1, SARM1 (50-724) (Homo sapiens, UniProt Q6SZW1).
T1 construct: Purified SARM1 (50-724) with a final concentration of 2 nM was pre-incubated with a test compound
T1 sequence (Q6SZW1 50-724): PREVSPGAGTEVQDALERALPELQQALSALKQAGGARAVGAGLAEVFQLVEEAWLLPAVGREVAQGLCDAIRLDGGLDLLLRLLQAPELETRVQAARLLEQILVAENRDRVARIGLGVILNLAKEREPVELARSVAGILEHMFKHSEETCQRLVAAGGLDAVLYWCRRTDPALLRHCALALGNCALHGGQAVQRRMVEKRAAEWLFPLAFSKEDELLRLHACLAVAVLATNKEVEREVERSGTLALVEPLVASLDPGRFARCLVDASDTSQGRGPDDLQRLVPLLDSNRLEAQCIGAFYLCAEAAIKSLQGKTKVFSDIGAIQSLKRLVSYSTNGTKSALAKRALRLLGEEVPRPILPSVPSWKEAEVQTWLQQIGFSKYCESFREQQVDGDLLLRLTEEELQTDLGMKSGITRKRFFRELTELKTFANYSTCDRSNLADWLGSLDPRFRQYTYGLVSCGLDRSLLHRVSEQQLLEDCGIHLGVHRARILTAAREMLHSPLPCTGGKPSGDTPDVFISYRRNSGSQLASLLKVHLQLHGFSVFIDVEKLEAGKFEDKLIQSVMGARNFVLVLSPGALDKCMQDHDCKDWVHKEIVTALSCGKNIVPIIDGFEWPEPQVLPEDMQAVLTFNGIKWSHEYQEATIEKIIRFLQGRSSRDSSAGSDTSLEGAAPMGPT
Nature of the test: SARM1 (50-724) enzymatic assay (LC-MS/MS). The conditions noted are these: Purified SARM1 (50-724) 2 nM, NMN as activator, NAD+ as substrate, 1 h at room temperature, read-out: IC50 (SARM1 inhibitory activity). In kind it is biochemical. In short, it runs like this:
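Human SARM1 (50-724), 2 nM, pre-incubated 15 min at room temperature with compound in Dulbecco's PBS. Reaction started with 200 µM NMN (activator) plus […] NAD^+ substrate, run 1 h at room temperature, quenched with 70% acetonitrile. Turnover quantified by LC-MS/MS; IC50 reported.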

Bounds are passed on as bounds.

On to `FC(F)(F)Oc1cnccc1-n1cnnc1-c1nc2cc(C34CC(C3)C4)ccc2[nH]1` [Compound 223, 5-(bicyclo[1.1.1]pentan-1-yl)-2-(4-(3-(trifluoromethoxy)pyridin-4-yl)-4H-1,2,4-triazol-3-yl)-1H-benzo[d]imidazole], for which the IC50 was no more than 100 nM. Under `Cn1cc(-c2cnccc2C(F)(F)F)c(-c2nc3c(Cl)c(Cl)ccc3[nH]2)cc1=O` [Compound 393, 4-(4,5-dichloro-1H-benzo[d]imidazol-2-yl)-1-methyl-4′-(trifluoromethyl)-[3,3′-bipyridin]-6(1H)-one] stands 500 to 1000 nM. Under `FC(F)(F)Oc1ccc(OC2CC2)cc1-n1cnnc1-c1nc2cc(C(F)(F)F)ccc2[nH]1` [Compound 275, 2-(4-(5-cyclopropoxy-2-(trifluoromethoxy)phenyl)-4H-1,2,4-triazol-3-yl)-5-(trifluoromethyl)-1H-benzo[d]imidazole] stands no more than 100 nM; under `Nc1nnc(-c2nc3cc(C(F)(F)F)cc(F)c3[nH]2)n1-c1cnccc1C(F)(F)F` [Compound 456, 5-(7-fluoro-5-(trifluoromethyl)-1H-benzo[d]imidazol-2-yl)-4-(4-(trifluoromethyl)pyridin-3-yl)-4H-1,2,4-triazol-3-amine], no more than 100 nM; under `CC(C)Oc1ccc2[nH]c(-c3nncn3-c3cccc(Cl)c3Cl)nc2c1` [compound 109], no more than 100 nM. Under `NC(=O)c1cc(-n2cnnc2-c2nc3cc(C(F)(F)F)ccc3[nH]2)c(Cl)cn1` [Compound 211, 5-chloro-4-(3-(5-(trifluoromethyl)-1H-benzo[d]imidazol-2-yl)-4H-1,2,4-triazol-4-yl)picolinamide] stands no more than 100 nM; under `O=S1(=O)CC[C@@H](OC(F)(F)F)[C@H](n2cnnc2-c2nc3cc(C(F)(F)F)ccc3[nH]2)C1` (single isomer, unassigned) [Compound 288], greater than 1000 nM.

Consider `Cc1ccc2[nH]c(-c3cnccc3-c3cccc(Cl)c3Cl)nc2c1` [Example 23], for which the IC50 was no more than 100 nM. Next, `N#Cc1cccc(-n2cnnc2-c2nc3cc(C(F)(F)F)ccc3[nH]2)c1Cl` [Compound 159, 2-chloro-3-(3-(5-(trifluoromethyl)-1H-benzo[d]imidazol-2-yl)-4H-1,2,4-triazol-4-yl)benzonitrile]: no more than 100 nM; `CS(=O)(=O)Cc1nnc(-c2nc3c(F)c(C(F)(F)F)ccc3[nH]2)n1-c1cccc(F)c1Cl` (racemic) [Compound 195, 2-(4-(2-chloro-3-fluorophenyl)-5-((methylsulfonyl)methyl)-4H-1,2,4-triazol-3-yl)-4-fluoro-5-(trifluoromethyl)-1H-benzo[d]imidazole]: no more than 100 nM.

Consider `CS(=N)(=O)Cc1nnc(-c2nc3cc(Cl)cc(F)c3[nH]2)n1-c1cccc(F)c1Cl` (stereo not drawn) [Compound 192, ((4-(2-chloro-3-fluorophenyl)-5-(5-chloro-7-fluoro-1H-benzo[d]imidazol-2-yl)-4H-1,2,4-triazol-3-yl)methyl)(imino)(methyl)-16-sulfanone], for which the IC50 was no more than 100 nM.

Regarding `Cn1cc(-c2ccc(Cl)cc2)c(-c2nc3cc(C(F)(F)F)ccc3[nH]2)cc1=O` [Example 98], the IC50 is greater than 1000 nM. Under `FC(F)(F)O[C@@H]1CCOC[C@H]1n1cnnc1-c1nc2cc(C(F)(F)F)ccc2[nH]1` (racemic) [Compound 239, 2-(4-((3R,4R)-4-(trifluoromethoxy)tetrahydro-2H-pyran-3-yl)-4H-1,2,4-triazol-3-yl)-5-(trifluoromethyl)-1H-benzo[d]imidazole] stands no more than 100 nM. Next, `FC(F)(F)c1ccncc1-n1cnnc1-c1nc2c(-c3cccnc3)c(Cl)ccc2[nH]1` [Compound 334, 6-chloro-7-(pyridin-3-yl)-2-(4-(4-(trifluoromethyl)pyridin-3-yl)-4H-1,2,4-triazol-3-yl)-1H-benzo[d]imidazole]: greater than 1000 nM. Turning to `Cc1ccc2[nH]c(-c3n[nH]c(=O)n3C3CCCC3)nc2c1` [Compound 14], the IC50 was greater than 1000 nM.
